# Reference: US20010049373A1, “Materials and methods for killing nematodes and nematode eggs” (priority 2000, published 2001)
# Assays:
# C. elegans = C. elegans nematode activity assay, 2-fold dilutions from 140 μM, visual evaluation at Day 4 (Example 3); assay type: in vivo; set-up: key: Dead: only stiff L1s (no movement); Dead (L4): worms are dead, but at a later larval stage; majority of worms are L1 (based on size); majority of worms are L2 (based on size); majority of worms are L3 (based on size); majority of worms are L4 (based on size); AD: majority of worms are adult; #AD: 5 adult worms or less; B!: sterile (0-25 progeny); B: low broodsize (25-100 progeny); ˜B: moderate broodsize (100-250 progeny); <: reduced broodsize (250-500 progeny); OK: no effect (˜1000+ progeny)
# [1] = tested on: root-knot nematode, Meloidogyne incognita; details: cited from earlier work
# tomatoes or cucumbers = details: rates of up to 10 kg/ha; cited from earlier work
# [2] = tested on: Colorado potato beetle, potato tuberworm, beet armyworm, diamondback moth, gypsy moth, and the European corn borer; details: cited from earlier work
compound,measurement,setting,value
O=C(NCC1CCN(C(=O)NCCC(c2ccccc2)c2ccccc2)CC1)c1cc(F)c(F)cc1F [AKC 116],visual evaluation of viability,C. elegans; 1.09 μM,OK (no effect (˜1000+ progeny))
same,visual evaluation of viability,C. elegans; 2.2 μM,OK (no effect (˜1000+ progeny))
same,visual evaluation of viability,C. elegans; 4.4 μM,OK (no effect (˜1000+ progeny))
same,visual evaluation of viability,C. elegans; 8.8 μM,B (low broodsize (25-100 progeny))
same,visual evaluation of viability,C. elegans; 17.5 μM,B! (sterile (0-25 progeny))
same,visual evaluation of viability,C. elegans; 35 μM,L3
O=C(NCC1CCN(C(=O)NCCC(c2ccccc2)c2ccccc2)CC1)c1ccc(F)cc1F [AKC 117],visual evaluation of viability,C. elegans; 1.09 μM,OK (no effect (˜1000+ progeny))
same,visual evaluation of viability,C. elegans; 2.2 μM,OK (no effect (˜1000+ progeny))
same,visual evaluation of viability,C. elegans; 4.4 μM,< (reduced broodsize (250-500 progeny))
same,visual evaluation of viability,C. elegans; 8.8 μM,B (low broodsize (25-100 progeny))
same,visual evaluation of viability,C. elegans; 17.5 μM,B! (sterile (0-25 progeny))
same,visual evaluation of viability,C. elegans; 35 μM,L3
O=C(NCC1CCN(C(=O)NCCC(c2ccccc2)c2ccccc2)CC1)c1cc(F)cc(F)c1 [AKC 118],visual evaluation of viability,C. elegans; 1.09 μM,OK (no effect (˜1000+ progeny))
same,visual evaluation of viability,C. elegans; 2.2 μM,OK (no effect (˜1000+ progeny))
same,visual evaluation of viability,C. elegans; 4.4 μM,˜B (moderate broodsize (100-250 progeny))
same,visual evaluation of viability,C. elegans; 8.8 μM,B (low broodsize (25-100 progeny))
same,visual evaluation of viability,C. elegans; 17.5 μM,L4/AD/B!
same,visual evaluation of viability,C. elegans; 35 μM,L3
same,visual evaluation of viability,C. elegans; 140 μM,L2
NCc1ccc(-c2ccccc2)cc1 [AKC 138],visual evaluation of viability,C. elegans; 1.09 μM,OK (no effect (˜1000+ progeny))
same,visual evaluation of viability,C. elegans; 2.2 μM,OK (no effect (˜1000+ progeny))
same,visual evaluation of viability,C. elegans; 4.4 μM,OK (no effect (˜1000+ progeny))
same,visual evaluation of viability,C. elegans; 8.8 μM,˜B (moderate broodsize (100-250 progeny))
same,visual evaluation of viability,C. elegans; 17.5 μM,L2
same,visual evaluation of viability,C. elegans; 35 μM,L1
same,visual evaluation of viability,C. elegans; 70 μM,L1
same,visual evaluation of viability,C. elegans; 140 μM,L1
Cc1ccc2c(Cl)cc(Cl)c(O)c2n1 [AKC 141],visual evaluation of viability,C. elegans; 1.09 μM,OK (no effect (˜1000+ progeny))
same,visual evaluation of viability,C. elegans; 2.2 μM,OK (no effect (˜1000+ progeny))
same,visual evaluation of viability,C. elegans; 4.4 μM,OK (no effect (˜1000+ progeny))
same,visual evaluation of viability,C. elegans; 8.8 μM,OK (no effect (˜1000+ progeny))
same,visual evaluation of viability,C. elegans; 17.5 μM,< (reduced broodsize (250-500 progeny))
same,visual evaluation of viability,C. elegans; 35 μM,L1
same,visual evaluation of viability,C. elegans; 70 μM,L1
same,visual evaluation of viability,C. elegans; 140 μM,L1
CC[C@H](C)[C@H]1O[C@]2(CC(O)[C@@H]1C)C[C@@H]1C[C@@H](C/C=C(\C)[C@@H](OC3CC(OC)C(OC4CC(OC)C(O)C(C)O4)C(C)O3)[C@@H](C)/C=C/C=C3\CO[C@@H]4[C@H](O)C(C)=C[C@@H](C(=O)O1)[C@]34O)O2 (stereo partly drawn) [Avermectin B2a],activity against the root-knot nematode,[1]; Meloidogyne incognita,active
same,potency relative to commercial contact nematicides,[1]; incorporated into soil at 0.16-0.25 kg/ha,10-30 times
same,toxicity to tomatoes or cucumbers,tomatoes or cucumbers,not toxic
Avermectin B1,effect on insect pests,[2],effective
